ChEMBL document CHEMBL3593236, “Cloning, characterization and anion inhibition studies of a new γ-carbonic anhydrase from the Antarctic bacterium Pseudoalteromonas haloplanktis” (Bioorg Med Chem, 2015)

Target: T1, Carbonic anhydrase (Methanosarcina thermophila, UniProt P40881)
T1 sequence (P40881 whole entry): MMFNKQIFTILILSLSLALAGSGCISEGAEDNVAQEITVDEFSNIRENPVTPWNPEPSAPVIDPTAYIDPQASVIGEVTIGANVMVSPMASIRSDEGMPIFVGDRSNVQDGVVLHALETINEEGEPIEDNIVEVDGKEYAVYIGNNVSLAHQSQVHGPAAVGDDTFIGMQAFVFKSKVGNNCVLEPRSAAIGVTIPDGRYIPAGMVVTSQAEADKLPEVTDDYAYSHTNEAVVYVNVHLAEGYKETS
Description: Inhibition of archaeon Methanosarcina thermophila gamma-CA after 15 mins by stopped-flow/Co2 hydration assay

Row | SMILES | Ki [mM]
1 | [Br-].[Na+] [SODIUM BROMIDE] | 160
2 | N#C[S-].[Na+] [THIOCYANATE SODIUM] | 7
